Laboratory results as given in ChEMBL document CHEMBL2163300, “Mitogen-activated protein kinase-activated protein kinase 2 (MAPKAP-K2) as an antiinflammatory target: discovery and in vivo activity of selective pyrazolo[1,5-a]pyrimidine inhibitors using a focused library and structure-based optimization approach” (J Med Chem, 2012).
Calls of active or inactive are those of the source. The rule behind the calls is not given here.

Legend:
[1] = biological target: T1, MAP kinase-activated protein kinase 2 (Homo sapiens, UniProt P49137); assay: Inhibition of MAPKAP-K2 using KKLNRTLSVA as substrate and [33P]-gamma-ATP after 30 mins by liquid scintillation counter
[2] = biological target: Cyclin-dependent kinase 2 (Homo sapiens, UniProt P24941)
Description: Inhibition of CDK2 after 60 mins using [33P]-gamma-ATP by liquid scintillation counter

[3] = biological target: T1, MAP kinase-activated protein kinase 2; assay: Inhibition of MAPKAP-K2
[4] = Total clearance in mouse at 1 mg/kg, iv; type: ADME, organism-based; set-up: dose 1 mg/kg, route intravenous; conditions: in vivo
[5] = biological target: T1, MAP kinase-activated protein kinase 2; assay: Inhibition of human MAPKAP-K2 in THP1 cells assessed as inhibition of LPS-induced TNFalpha production incubated 1 hr prior to LPS challenge measured 18 hrs post LPS challenge by HTRF assay; type: cell-based, THP-1
[6] = AUC (0 to 24 hrs) in mouse at 1 mg/kg, po; type: ADME, organism-based; set-up: time < 24 hr, dose 1 mg/kg, route oral; conditions: plasma
[7] = Half life in mouse at 1 mg/kg, iv; type: ADME, organism-based; set-up: dose 1 mg/kg, route intravenous; conditions: in vivo
[8] = test system: THP-1; assay: Cytotoxicity against human THP1 cells assessed as cell viability by MTS assay; type: cell-based
[9] = Oral bioavailability in mouse at 1 mg/kg; type: ADME, organism-based; conditions: in vivo
[10] = biological target: Serine/threonine-protein kinase Chk2 (Homo sapiens) (UniProt O96017); assay: Inhibition of human CHK2 at 30 uM by Cyclex assay
[11] = test system: Mus musculus; assay: Antiinflammatory activity in po dosed C57BL/6 mouse assessed as decrease in LPS-induced serum TNFalpha level administered 30 mins prior to LPS challenge measured 60 mins post LPS challenge by ELISA; type: functional, organism-based
[12] = biological target: T1, MAP kinase-activated protein kinase 2; assay: Binding affinity to recombinant MAPKAP-K2 using KKKALSRQLSVAA as substrate after 4 mins by […]

Sequence of Serine/threonine-protein kinase Chk2 (Homo sapiens) (O96017 whole entry): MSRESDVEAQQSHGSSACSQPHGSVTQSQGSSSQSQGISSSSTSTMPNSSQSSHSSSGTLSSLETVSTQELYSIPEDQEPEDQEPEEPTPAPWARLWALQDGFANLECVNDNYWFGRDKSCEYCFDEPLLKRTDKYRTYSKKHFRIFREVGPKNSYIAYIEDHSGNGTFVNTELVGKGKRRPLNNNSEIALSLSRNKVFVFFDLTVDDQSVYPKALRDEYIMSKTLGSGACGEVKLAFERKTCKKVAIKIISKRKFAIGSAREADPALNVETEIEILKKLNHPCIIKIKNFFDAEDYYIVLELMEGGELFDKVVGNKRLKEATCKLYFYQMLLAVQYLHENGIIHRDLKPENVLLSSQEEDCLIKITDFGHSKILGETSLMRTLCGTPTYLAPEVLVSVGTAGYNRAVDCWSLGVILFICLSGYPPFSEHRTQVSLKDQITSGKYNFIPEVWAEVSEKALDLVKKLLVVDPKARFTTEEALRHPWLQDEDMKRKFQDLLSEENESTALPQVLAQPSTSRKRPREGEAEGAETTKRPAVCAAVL
T1 sequence (P49137 whole entry): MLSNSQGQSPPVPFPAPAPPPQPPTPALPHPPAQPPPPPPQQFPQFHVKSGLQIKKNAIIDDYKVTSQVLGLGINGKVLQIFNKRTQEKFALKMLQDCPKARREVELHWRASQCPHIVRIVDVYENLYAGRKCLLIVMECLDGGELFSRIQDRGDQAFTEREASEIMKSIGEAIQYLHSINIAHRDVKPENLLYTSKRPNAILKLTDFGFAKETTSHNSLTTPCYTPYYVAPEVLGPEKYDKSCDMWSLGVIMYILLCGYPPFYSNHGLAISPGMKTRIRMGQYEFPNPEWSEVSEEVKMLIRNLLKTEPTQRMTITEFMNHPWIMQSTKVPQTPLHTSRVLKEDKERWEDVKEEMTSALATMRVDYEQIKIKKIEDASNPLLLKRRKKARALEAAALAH

IC50 [1] [µM] | IC50 [2] [µM] | SMILES | other results
0.51 | 33 | Cc1c(NC2CCCNC2)nc2ccnn2c1Nc1ccc(F)c(Cl)c1 (racemic) | –
– | – | N#Cc1c(N)nc2c(c1N)Cc1cc(O)c(O)cc1O2 | IC50 [3]: 0.13 µM
9.2 | 0.0034 | N[C@H]1CC[C@H](Nc2cc(Nc3ccc(F)c(Cl)c3)n3ncc(Br)c3n2)CC1 | –
> 100 | – | Nc1ccc(Nc2cc(Nc3ccc(F)c(Cl)c3)n3nccc3n2)cc1 | –
0.4 | 11 | Cc1c(N[C@H]2CC[C@H](N)CC2)nc2ccnn2c1Nc1ccc(F)c(Cl)c1 | –
7 | – | N[C@H]1CC[C@H](Nc2cc(NCc3ccccc3)n3nccc3n2)CC1 | –
0.4 | 0.7 | Fc1ccc(Nc2cc(NC3CCCNC3)nc3ccnn23)cc1Cl (racemic) | –
0.7 | – | Cc1c(N[C@H]2CC[C@H](N)CC2)nc2ccnn2c1Nc1ccc(OCc2ccccc2)cc1 | –
> 300 | – | CN(c1ccc(F)c(Cl)c1)c1cc(N[C@H]2CC[C@H](N)CC2)nc2ccnn12 | –
> 100 | – | CCN(CC)[C@H]1CC[C@H](Nc2cc(Nc3ccc(F)c(Cl)c3)n3nccc3n2)CC1 | –
0.057 | 21 | CC(=O)c1ccc(-c2ccc(Nc3c(C)c(N[C@H]4CCCNC4)nc4ccnn34)cc2)s1 | –
3 | – | Cc1c(N[C@H]2CC[C@H](N)CC2)nc2ccnn2c1Nc1cccc(OCc2ccccc2)c1 | –
1.4 | – | CCOc1cccc(Nc2c(C)c(N[C@H]3CC[C@H](N)CC3)nc3ccnn23)c1 | –
> 100 | – | Fc1ccc(Nc2cc(NC3CCCCC3)nc3ccnn23)cc1Cl | –
0.13 | 22 | COCCOc1ccc(Nc2c(C)c(N[C@H]3CCCNC3)nc3ccnn23)cc1 | clearance [4]: 58.3 mL/min/kg; IC50 [5]: 7.6 µM; AUC(0-t) at 24 h [6]: 0.316 µM·h; half-life [7]: 1 h; IC50 [8]: > 100 µM; bioavailability [9]: 80%
0.6 | 2.1 | CCCc1c(N[C@H]2CC[C@H](N)CC2)nc2ccnn2c1Nc1ccc(F)c(Cl)c1 | –
0.7 | – | CCOC(=O)c1ccc(Nc2c(C)c(N[C@H]3CC[C@H](N)CC3)nc3ccnn23)cc1 | –
3.1 | 0.004 | N#Cc1cnn2c(Nc3ccc(F)c(Cl)c3)cc(N[C@H]3CC[C@H](N)CC3)nc12 | –
0.16 | 62 | Cc1c(N[C@H]2CCCNC2)nc2ccnn2c1Nc1ccc(OCCN2CCOCC2)cc1 | –
0.4 | 3.6 | CCc1c(N[C@H]2CC[C@H](N)CC2)nc2ccnn2c1Nc1ccc(F)c(Cl)c1 | inhibition [10]: inactive
> 100 | – | Fc1ccc(Nc2cc(NCC3CCNCC3)nc3ccnn23)cc1Cl | –
89 | – | CCOc1ccc(Nc2c(C)c(N[C@H]3CC[C@H](O)CC3)nc3ccnn23)cc1 | –
2.5 | – | CCOc1ccc(Nc2c(C)c(NCCN)nc3ccnn23)cc1 | –
0.57 | – | CCOc1ccc(Nc2c(C)c(O[C@H]3CC[C@H](N)CC3)nc3ccnn23)cc1 | –
1.5 | > 300 | CCc1c(N[C@H]2CC[C@H](N)CC2)nc2ccnn2c1Nc1ccccc1Cl | –

IC50 [1] [µM] | IC50 [2] [µM] | SMILES | other results
83 | – | CCOc1ccc(Nc2c(C)c(NCCO)nc3ccnn23)cc1 | –
– | – | Cc1ccc(-n2nc(C(C)(C)C)cc2NC(=O)Nc2ccc(OCCN3CCOCC3)c3ccccc23)cc1 | Activity [11]: Dose-dependent effect
0.054 | 25 | Cc1nc2ccc(Nc3c(C)c(N[C@H]4CCCNC4)nc4ccnn34)cc2s1 | clearance [4]: 58.3 mL/min/kg; IC50 [5]: 8.4 µM; AUC(0-t) at 24 h [6]: 0.579 µM·h; half-life [7]: 2.6 h; IC50 [8]: 54 µM; bioavailability [9]: 79%
25 | – | Fc1ccc(Nc2cc(NC3CCNCC3)nc3ccnn23)cc1Cl | –
0.2 | 0.39 | N[C@H]1CC[C@H](Nc2cc(Nc3ccccc3Cl)n3nccc3n2)CC1 | inhibition [10]: inactive
– | – | Cc1ccc(-c2ccc3c(ccc4sc5c(c43)NC[C@@H](C)NC5=O)n2)cn1 | IC50 [12]: 0.005 µM
0.7 | 24 | CCc1c(NC2CCCNC2)nc2ccnn2c1Nc1ccc(F)c(Cl)c1 (racemic) | –
11 | – | N[C@H]1CC[C@H](Nc2cc(NCC3CCCCC3)n3nccc3n2)CC1 | –
2 | – | CCN[C@H]1CC[C@H](Nc2cc(Nc3ccc(F)c(Cl)c3)n3nccc3n2)CC1 | –
> 100 | – | CC(=O)N[C@H]1CC[C@H](Nc2cc(Nc3ccc(F)c(Cl)c3)n3nccc3n2)CC1 | –
0.14 | 49 | Cc1c(N[C@H]2CCCNC2)nc2ccnn2c1Nc1ccc(C(=O)NC2CCCC2)cc1 | –
0.076 | 27 | Cc1c(N[C@H]2CCCNC2)nc2ccnn2c1Nc1ccc2c(cnn2C)c1 | –
12 | – | CC(C)CCNc1cc(N[C@H]2CC[C@H](N)CC2)nc2ccnn12 | –
1.7 | 6.4 | Cc1c(N[C@H]2CC[C@H](N)CC2)nc2ccnn2c1Nc1ccccc1Cl | –
8.1 | 0.003 | N[C@H]1CC[C@H](Nc2cc(Nc3ccc(F)c(Cl)c3)n3ncc(Cl)c3n2)CC1 | –
26 | – | CCOc1ccc(Nc2c(C)c(N(C)C3CCCNC3)nc3ccnn23)cc1 (racemic) | –
> 100 | – | CCOc1ccc(Nc2c(C)c(N[C@H]3CCCNC3=O)nc3ccnn23)cc1 | –
> 300 | – | Cc1cc2nc(N[C@H]3CC[C@H](N)CC3)cc(Nc3ccc(F)c(Cl)c3)n2n1 | –
1.9 | – | CCOC(=O)c1cccc(Nc2c(C)c(N[C@H]3CC[C@H](N)CC3)nc3ccnn23)c1 | –
> 100 | – | NC1CCCC(Nc2cc(Nc3ccc(F)c(Cl)c3)n3nccc3n2)C1 (centres undefined) | –
0.36 | – | CCOc1ccc(Nc2c(C)c(N[C@H]3CC[C@H](N)CC3)nc3ccnn23)cc1 | inhibition [10]: inactive
1.6 | 6 | N[C@H]1CC[C@H](Nc2nc3ccnn3c(Nc3ccc(F)c(Cl)c3)c2-c2ccccc2)CC1 | –
4.1 | – | CCOc1ccc(Nc2c(C)c(NCCCCN)nc3ccnn23)cc1 | –
8.7 | – | CCOc1ccc(Nc2c(C)c(NCCCN)nc3ccnn23)cc1 | –
> 300 | – | CC(C)(C)c1cc2nc(N[C@H]3CC[C@H](N)CC3)cc(Nc3ccc(F)c(Cl)c3)n2n1 | –
